# Where “and” joins values, the source holds several entries; their conditions need not be identical. Equal values may be shown once.
# Tests used:
# [1] = tested on: canine interferon-β (Ifn-β); experiment: RT-qPCR of Ifn-β mRNA in MDCK cells with or without A/PR/8/34 virus; type: cell-based; conditions: 12.5uM, relative to virus - DMSO; for MDCK IFN-b mRNA, ave: ave of #1-3 exp; for MDCK IFN-b mRNA, individual replicates: replicates 1-3 of #1, #2, #3 exp, listed as Cyclobakuchiol C
# [2] = tested on: A/PR/8/34 virus; experiment: Influenza A viral growth assay (viral titer of culture media); type: cell-based, influenza A H1N1 virus; parameters: viral titer of culture media, individual replicate / viral titer of culture media, ave: unit not given here; conditions: A/PR/8/34 (PR8), 12.5uM, average of #1-3 exp (n=9)
# [3] = tested on: A/WSN/33 virus; experiment: Immunofluorescence staining of viral NP in influenza A virus-infected MDCK cells; conditions: WSN
# Method: (§1) MDCK cells were seeded on a 96-well plate at 1 × 10^4 cells/well. […] Each mixture was added to the cells at 37°C in the presence of 5% CO2. […] After influenza A viral infection for 24 h, the cells were fixed with 4% paraformaldehyde in phosphate-buffered saline (PBS) for 30 min at 4°C and subsequently permeabilized by the addition of 0.3% Triton X-100 for 20 min at 25°C. A mouse primary antibody was used to detect the NP of A/PR/8/34 or A/WSN/33 viruses (FluA-NP 4F1; SouthernBiotech, AL, USA). Alexa Fluor488-conjugated goat anti-mouse IgG (H + L) antibody (Thermo Fisher Scientific) was used as the secondary antibody. Cell nuclei were then stained using diamidino-2-phenylindole (DAPI) (Thermo Fisher Scientific). Wells were photographed using a fluorescence microscope (BIOREVO BZ-X700; Keyence, Osaka, Japan). The proportion of influenza A NP-positive cells per DAPI-positive cells was calculated based on measurements recorded using BZ-X Analyzer software (Keyence).
# [4] = tested on: A/PR/8/34 virus; experiment: RT-qPCR of viral mRNAs (NP, NS1, PA, PB1, PB2, M2) in infected MDCK cells; type: cell-based, influenza A H1N1 virus
# [5] = tested on: NAD(P)H quinone oxidoreductase 1 (Nqo1); experiment: RT-qPCR of Nqo1 mRNA in MDCK cells with or without A/PR/8/34 virus; type: cell-based, canine; conditions: 12.5uM, MDCK, relative to virus - DMSO; for NQO1 Canis lupus mRNA, ave: ave of #1-3 exp; for NQO1 Canis lupus mRNA, individual replicates: replicates 1-3 of #1, #2, #3 exp, listed as Cyclobakuchiol C
# [6] = tested on: A/PR/8/34 virus; experiment: Immunofluorescence staining of viral NP in influenza A virus-infected MDCK cells; conditions: for NP/DAPI (%) ave: average of 9 wells
# Method: as §1
# [7] = tested on: A/WSN/33 virus; experiment: Influenza A viral growth assay (viral titer of culture media); type: cell-based, influenza A H1N1 virus; conditions: A/WSN/33 (WSN), 12.5uM, average of #1-3 exp (n=9)
# [8] = tested on: Nrf2; experiment: Nrf2 reporter assay (dual luciferase system) in MDCK cells; type: cell-based, canine; conditions: 12.5uM, relative to DMSO trans+
# Method: An Nrf2 reporter assay based on the dual luciferase system was performed as previously described. The plasmid pNQO1-ARE (antioxidant response element)-Fluc, provided by Yamamoto M., expressed a Firefly luciferase gene driven by Nrf2 activation, while the plasmid pRL-TK-Rluc vector (Promega, CA, USA) expressed a Renilla luciferase gene driven by the herpes simplex viral thymidine kinase promoter as an internal control. MDCK cells were seeded in a 24-well plate at 1 × 10^5 cells/well and transfected with pNQO1-ARE-luc (0.25 μg) and pRL-TK-Rluc (0.25 μg). At 24 h post-transfection, the cells were treated with 12.5 μM cyclobakuchiols A–D in the infection medium at 37°C under 5% CO2. DMSO (0.125%) and 12.5 μM 1 were used as negative and positive controls, respectively. Total RNA was extracted from the MDCK cell lysates after 24 h of incubation. The levels of Firefly and Renilla luciferase mRNAs were analyzed by RT-qPCR and normalized to that of β-actin mRNA.
# [9] = tested on: A/PR/8/34 virus; type: cell-based; conditions: 12.5 μM, 24h WB
# [10] = MDCK cells, PR8 virus, relative to DMSO (about 1), ave of #1-3 exp (9 values)
# [11] = MDCK cells, PR8 virus, relative to DMSO, replicates 1-3 of #1, #2, #3 exp, listed as Cyclobakuchiol C
# [12] = single experiment, listed as cyclo C
smiles,measurement,setting,value
C=C[C@]1(C)CCC(C(C)(C)O)C(c2ccc(O)cc2)C1 (stereo in doubt) [cyclobakuchiol C],"MDCK IFN-b mRNA, ave",[1]; virus +,8.927
same,"MDCK IFN-b mRNA, individual replicates",[1]; virus +,3.309 and 15.7023 and 10.0086 and 14.1468 and 10.7403 and 6.351 and 9.878 and 6.251 and 3.957
same,"MDCK IFN-b mRNA, ave",[1]; virus -,1.684
same,"MDCK IFN-b mRNA, individual replicates",[1]; virus -,0.8094 and 4.073 and 2.562 and 3.148 and 0.7696 and 1.281 and 1.389 and 0.8375 and 0.2824
same,"viral titer of culture media, ave",[2]; 12h,33333.3
same,"viral titer of culture media, ave",[2]; 24h,52222.2
same,"viral titer of culture media, ave",[2]; 48h,37777.8
same,"viral titer of culture media, ave",[2]; 72h,43333.3
same,NP/DAPI (%) ave,"[3]; 3.13uM, ave of 9 values (3 exp)",25.0115%
same,NP/DAPI (%) ave,"[3]; 6.25uM, ave of 9 values (3 exp)",26.7813%
same,NP/DAPI (%) ave,"[3]; 12.5uM, ave of 9 values (3 exp)",26.2263%
same,NP/DAPI (%) ave,"[3]; 25uM, ave of 9 values (3 exp)",34.9195%
same,NP/DAPI (%) ave,"[3]; ave summary, 3.13%",25.0115%
same,NP/DAPI (%) ave,"[3]; ave summary, 6.25%",26.7813%
same,NP/DAPI (%) ave,"[3]; ave summary, 12.50%",26.2263%
same,NP/DAPI (%) ave,"[3]; ave summary, 25%",34.9195%
same,"PR8 NP gene expression qPCR, ave","[4]; MDCK PR8, NP mRNA, relative (DMSO about 1), average of #1-3 exp (n=9)",0.0715
same,"PR8 NP gene expression qPCR, individual replicate","[4]; MDCK PR8, NP mRNA, relative (DMSO about 1), replicates of #1-3 exp, listed as Cyclobakuchiol C",0.02965 and 0.0515 and 0.04036 and 0.08601 and 0.1343 and 0.1201 and 0.1206 and 0.03078 and 0.03024
same,"PR8 NS1 gene expression qPCR, ave","[4]; MDCK PR8, NS1 mRNA, relative (DMSO about 1), average of #1-3 exp (n=9)",0.04238
same,"PR8 NS1 gene expression qPCR, individual replicate","[4]; MDCK PR8, NS1 mRNA, relative (DMSO about 1), replicates of #1-3 exp, listed as Cyclobakuchiol C",0.02453 and 0.03462 and 0.02897 and 0.02312 and 0.08062 and 0.06227 and 0.07687 and 0.03138 and 0.01906
same,"PR8 PA gene expression qPCR, ave","[4]; MDCK PR8, PA mRNA, relative (DMSO about 1), average of #1-3 exp (n=9)",0.04976
same,"PR8 PA gene expression qPCR, individual replicate","[4]; MDCK PR8, PA mRNA, relative (DMSO about 1), replicates of #1-3 exp, listed as Cyclobakuchiol C",0.02841 and 0.03504 and 0.0209 and 0.04366 and 0.1014 and 0.08076 and 0.0804 and 0.03232 and 0.02491
same,"PR8 M2 gene expression qPCR, ave",[4]; [10],0.05203
same,"PR8 PB1 gene expression qPCR, ave",[4]; [10],0.0394
same,"PR8 PB2 gene expression qPCR, ave",[4]; [10],0.05178
same,"PR8 M2 gene expression qPCR, individual replicates",[4]; [11],0.02539 and 0.04593 and 0.02488 and 0.06301 and 0.1078 and 0.07697 and 0.07009 and 0.03046 and 0.02377
same,"PR8 PB1 gene expression qPCR, individual replicates",[4]; [11],0.02851 and 0.01826 and 0.01255 and 0.01866 and 0.09078 and 0.07015 and 0.07353 and 0.02182 and 0.02034
same,"PR8 PB2 gene expression qPCR, individual replicates",[4]; [11],0.02749 and 0.04527 and 0.0229 and 0.05473 and 0.1042 and 0.07786 and 0.07787 and 0.03099 and 0.02468
same,"NQO1 Canis lupus mRNA, ave",[5]; virus + (PR8),1.3
same,"NQO1 Canis lupus mRNA, individual replicates",[5]; virus + (PR8),1.5721 and 1.53 and 1.546 and 1.742 and 0.864 and 0.8958 and 0.9507 and 1.371 and 1.2312
same,"NQO1 Canis lupus mRNA, ave",[5]; virus -,1.195
same,"NQO1 Canis lupus mRNA, individual replicates",[5]; virus -,1.246 and 1.375 and 1.298 and 1.334 and 1.006 and 1.078 and 1.116 and 1.24 and 1.059
same,NP/DAPI (%) ave,"[6]; A/PR/8/34, 3.13 uM",6.545%
same,NP/DAPI (%) ave,"[6]; A/PR/8/34, 6.25 uM",2.732%
same,NP/DAPI (%) ave,"[6]; A/PR/8/34, 12.5 uM",1.281%
same,NP/DAPI (%) ave,"[6]; A/PR/8/34, 25 uM",1.024%
same,IC50,"[6]; Influenza A virus, PR/8, MDCK, read-out: half maximal (50%) inhibitory concentration (IC50)",4.6 ± 2.2 µM
same,"viral titer of culture media, ave",[7]; 12h,8288.89
same,"viral titer of culture media, ave",[7]; 24h,21277778
same,"viral titer of culture media, ave",[7]; 48h,246888889
same,"viral titer of culture media, ave",[7]; 72h,155211111
same,"pNQO1-ARE-Luc NRF2 reporter assay, ave",[8]; ave of #1-3 exp,1.343
same,"pNQO1-ARE-Luc NRF2 reporter assay, individual replicates","[8]; two values each of #1, #2, #3 exp, listed as Cyclobakuchiol C",1.496 and 1.13 and 1.492 and 1.034 and 1.043 and 1.865
same,NP/b-actin ave,[9]; average of 3 experiments,0.8052
same,NS1/b-actin ave,[9]; average of 3 experiments,0.5534
same,"NP mean (western blot signal intensity, ImageJ)",[9]; [12],91.764 and 95.052 and 111.845
same,NP/b-actin,[9]; [12],0.819 and 0.7 and 0.8964
same,NS1/b-actin,[9]; [12],0.4287 and 0.5327 and 0.6988
same,"NS1 mean (western blot signal intensity, ImageJ)",[9]; [12],69.827 and 74.096 and 58.545
